biological target: 3-beta-hydroxysteroid-Delta(8),Delta(7)-isomerase (Homo sapiens, UniProt Q15125); experiment: Inhibition of EBP derived from HEK293T cells using zymosterol-d5 as substrate preincubated for 30 mins followed by substrate addition measured after 4 hrs by LC-APCI MRM MS analysis; type: cell-based
Sequence (Q15125 whole entry): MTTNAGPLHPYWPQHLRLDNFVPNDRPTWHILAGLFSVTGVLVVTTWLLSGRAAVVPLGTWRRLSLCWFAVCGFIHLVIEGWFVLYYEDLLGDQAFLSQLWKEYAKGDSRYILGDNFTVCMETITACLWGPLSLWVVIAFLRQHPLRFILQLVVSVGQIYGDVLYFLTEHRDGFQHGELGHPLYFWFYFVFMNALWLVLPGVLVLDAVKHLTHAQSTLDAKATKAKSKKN

IC50, < 100 nM:
O=S(=O)(c1ccc2c(c1)OCCO2)N1CCC2(CCC(N3CC4(COC4)C3)C2)CC1 (stereo unspecified)
COc1nccc(S(=O)(=O)N2CCC3(CCC(N4CCOCC4)C3)CC2)c1F (stereo unspecified)
O=S(=O)(c1coc(C(F)(F)F)c1)N1CCC2(CCC(N3CC4(COC4)C3)C2)CC1 (stereo unspecified)
O=S(=O)(c1ccc(F)cc1)N1CCC2(CCC(N3CC4(COC4)C3)C2)CC1 (stereo unspecified)
Cc1nc(C(F)(F)F)ncc1S(=O)(=O)N1CCC2(CC1)CC(N(C)C1CC3(COC3)C1)CO2 (stereo unspecified)
Cn1nc(C2CC2)cc1S(=O)(=O)N1CCC2(CC1)CC(NC1CCOCC1)C2

From ChEMBL document CHEMBL5370677, “Emopamil-Binding Protein Inhibitors for Treating Multiple Sclerosis” (ACS Med Chem Lett, 2023)
